Consider 27 compounds from patent EP0354694A1, “Therapeutic [1]benzothiopyrano[4,3-c]pyrazoles” (The Boots Company PLC, priority 1988, dated 1990).

This assay concerns BALB/c mice. The assay is described as follows: cutaneous hypersensitivity test (CH test), oxazolone-induced ear swelling. It counts as in vivo. Particulars: Mus musculus, ip, 192 h; female BALB/c mice, intraperitoneal, daily from sensitisation for 8 days; lowest dose used with 20% or greater significant (p <0.05) reduction in ear swelling in two out of three CH tests; read-out: Minimum Effective Dose. The method, then:
This test was carried out in the following way.
Female BALB/c mice, weight range 16-24 g, were used in groups of eight. The abdomen of each mouse was shaved and 20 µl of a solution of a sensitising agent, 5% w/v 4-ethoxymethylene-2-phenyl-2-oxazolin-5-one (oxazolone) in acetone:ethanol (1:1 by volume), was applied to the shaved area. Immediately after sensitisation, the test compound in one of the dosages listed below was injected intraperitoneally as a suspension in 1.5% v/v sorbitan esters, under the trade name Tween 80, in sterile water (100 µl). 100 µl of the same suspension was injected likewise every 24 hours for a further 7 days. The dosages used were selected from the following values: 50, 30, 10, 3, 1, 0.3, 0.1, 0.03 or 0.01 mg/kg.
Two groups of eight BALB/c mice were used as a control simultaneously with each test in a similar manner to that described above except that no test compound was included in the daily injections.
On the seventh day after sensitisation, 10 µl of a solution of 1% w/v oxazolone in acetone: olive oil (either 1:1 or 3:1 by volume) was applied to one ear (the challenged ear) of each of the test mice and the control mice. After 24 hours the thickness of the challenged ear and the thickness of the non-challenged ear of the same animal were measured with an engineer's screw gauge micrometer. The difference in thickness between the challenged ear and the non-challenged ear in each animal is a measure of the response of that animal to oxazolone. A comparison between the response of mice treated with the test compound and mice treated with the control indicates the effectiveness of the test compound as an immunomodulatory agent. The compounds were considered to be active at a particular dose if a 20% or greater reduction in ear swelling, which was statistically significant (p <0.05) according to Dunnett's test, between treated and control groups was obtained in two out of three CH tests, (or, where more than three tests have been carried out, a majority of the tests) at that dose (see for example Int. Arch. Allergy, 38, p246-259 (1970)).
Each of the compounds of formula I illustrated in Table A below was active at 50 mg/kg in two out of three tests at 50 mg/kg unless indicated otherwise (see Notes following the Table). The minimum effective dose (ie the lowest dose of those used at which the compound is active as defined above) for each compound is given in Table A. The Example (Ex) number or numbers listed adjacent to each compound indicates the process or processes illustrating the preparation of that compound in the Examples.
As for `CC12CSc3ccccc3C1=NN(c1ccc(Cl)cc1)C2=O` (stereo not drawn) [Example 11/ 23, 2-(4-chlorophenyl)-3a-methyl-3a,4-dihydro[1]benzothiopyrano[4,3-c]-pyrazol-3(2H)-one], the minimal effective dose is 3 mg/kg.

For `CC12CSc3ccccc3C1=NN(c1ccc(F)cc1)C2=O` (stereo not drawn) [Example 12, 2-(4-fluorophenyl)-3a-methyl-3a,4-dihydro[1]benzothiopyrano[4,3-c]-pyrazol-3(2H)-one], the minimal effective dose worked out at 50 mg/kg.

`CC12CSc3ccccc3C1=NN(c1ccc(Cl)c(Cl)c1)C2=O` (stereo not drawn) [Example 13/ 24, 2-(3,4-dichlorophenyl)-3a-methyl-3a,4-dihydro[1]benzothiopyrano-[4,3-c]pyrazol-3(2H)-one]: the minimal effective dose was 0.3 mg/kg.

Turning to `CC12CSc3ccccc3C1=NN(c1cccc(Cl)c1)C2=O` (stereo not drawn) [Example 14, 2-(3-chlorophenyl)-3a-methyl-3a,4-dihydro[1]benzothiopyrano[4,3-c]-pyrazol-3(2H)-one], the minimal effective dose came out at 3 mg/kg.

Consider `CC12CSc3ccc(Cl)cc3C1=NN(c1ccc(Cl)c(Cl)c1)C2=O` (stereo not drawn) [Example 15, 8-chloro-2-(3,4-dichlorophenyl)-3a-methyl-3a,4-dihydro[1]benzothio-pyrano[4,3-c]pyrazol-3(2H)-one], for which the minimal effective dose stood at 50 mg/kg.

Turning to `CC12CSc3ccccc3C1=NN(c1ccc(C(F)(F)F)cc1)C2=O` (stereo not drawn) [Example 16, 3a-methyl-2-(4-trifluoromethylphenyl)-3a,4-dihydro[1]benzothiopyrano-[4,3-c]pyrazol-3(2H)-one], the minimal effective dose was determined as 0.3 mg/kg.

Take `CC12CSc3ccccc3C1=NN(c1ccc(Br)c(Cl)c1)C2=O` (stereo not drawn) [Example 17, 2-(4-bromo-3-chlorophenyl)-3a-methyl-3a,4-dihydro[1]benzothiopyrano[4,3-c]-pyrazol-3(2H)-one]: the minimal effective dose amounted to 0.3 mg/kg.

Regarding `CC12CSc3ccccc3C1=NN(c1ccc(F)c(Cl)c1)C2=O` (stereo not drawn) [Example 18, 2-(3-chloro-4-fluorophenyl)-3a-methyl-3a,4-dihydro[1]benzothiopyrano[4,3-c]-pyrazol-3(2H)-one], the minimal effective dose amounted to 3 mg/kg.

`Cc1ccc(N2N=C3c4ccccc4SCC3(C)C2=O)cc1Cl` (stereo not drawn) [Example 19, 2-(3-chloro-4-methylphenyl)-3a-methyl-3a,4-dihydro[1]benzothiopyrano[4,3-c]-pyrazol-3(2H)-one]: the minimal effective dose is 3 mg/kg.

`CC12CSc3ccccc3C1=NN(c1ccc(Br)cc1)C2=O` (stereo not drawn) [Example 20, 2-(4-bromophenyl)-3a-methyl-3a,4-dihydro[1]benzothiopyrano[4,3-c]-pyrazol-3(2H)-one]: the minimal effective dose stood at 1 mg/kg.

On to `CSc1ccc(N2N=C3c4ccccc4SCC3(C)C2=O)cc1` (stereo not drawn) [Example 21, 3a-methyl-2-(4-methylthiophenyl)-3a,4-dihydro[1]benzothiopyrano[4,3-c]-pyrazol-3(2H)-one], for which the minimal effective dose was 50 mg/kg.

Regarding `CC12CSc3ccc(F)cc3C1=NN(c1ccc(Cl)cc1)C2=O` (stereo not drawn) [Example 22, 2-(4-chlorophenyl)-8-fluoro-3a-methyl-3a,4-dihydro[1]benzothiopyrano[4,3-c]-pyrazol-3(2H)-one], the minimal effective dose is 50 mg/kg.

Turning to `CC1Sc2ccccc2-c2[nH]n(-c3ccc(Cl)cc3)c(=O)c21` (stereo not drawn) [Example 25, 2-(4-chlorophenyl)-4-methyl-1,4-dihydro[1]benzothiopyrano[4,3-c]-pyrazol-3(2H)-one], the minimal effective dose was 30 mg/kg.

For the compound `CC1Sc2ccccc2-c2[nH]n(-c3ccc(Cl)c(Cl)c3)c(=O)c21` (stereo not drawn) [Example 26, 2-(3,4-dichlorophenyl)-4-methyl-1,4-dihydro[1]benzothiopyrano[4,3-c]-pyrazol-3(2H)-one], the minimal effective dose was determined as 50 mg/kg.

Consider `CC1Sc2ccccc2-c2[nH]n(-c3ccc(F)cc3)c(=O)c21` (stereo not drawn) [Example 27, 2-(4-fluorophenyl)-4-methyl-1,4-dihydro[1]benzothiopyrano[4,3-c]-pyrazol-3(2H)-one], for which the minimal effective dose worked out at 50 mg/kg.

With `CCC1Sc2ccccc2-c2[nH]n(-c3ccc(Cl)cc3)c(=O)c21` (stereo not drawn) [Example 28, 2-(4-chlorophenyl)-4-ethyl-1,4-dihydro[1]benzothiopyrano[4,3-c]-pyrazol-3(2H)-one], the minimal effective dose worked out at 50 mg/kg.

As to `CC1Sc2ccccc2-c2[nH]n(-c3ccc(C(F)(F)F)cc3)c(=O)c21` (stereo not drawn) [Example 29/ 34/ 44, 4-methyl-2-(4-trifluoromethylphenyl)-1,4-dihydro[1]benzothiopyrano[4,3-c]-pyrazol-3(2H)-one], the minimal effective dose was determined as 3 mg/kg.

In the case of `CC1Sc2ccccc2-c2[nH]n(-c3ccc(Br)cc3)c(=O)c21` (stereo not drawn) [Example 30, 2-(4-bromophenyl)-4-methyl-1,4-dihydro[1]benzothiopyrano[4,3-c]-pyrazol-3(2H)-one], the minimal effective dose is 3 mg/kg.

Take `Cc1sc2ccccc2c2nn(-c3ccc(Cl)cc3)c(=O)c1-2` [Example 35, 2-(4-chlorophenyl)-4-methyl[1]-benzothiopyrano[4,3-c]pyrazol-3(2H)-one]: the minimal effective dose is 10 mg/kg.

In the case of `Cc1sc2ccccc2c2nn(-c3ccc(F)cc3)c(=O)c1-2` [Example 36, 2-(4-fluorophenyl)-4-methyl[1]benzo-thiopyrano[4,3-c]pyrazol-3(2H)-one], the minimal effective dose stood at 10 mg/kg.

`CCc1sc2ccccc2c2nn(-c3ccc(Cl)cc3)c(=O)c1-2` [Example 37, 2-(4-chlorophenyl)-4-ethyl[1]benzo-thiopyrano[4,3-c]pyrazol-3(2H)-one]: the minimal effective dose turned out to be 50 mg/kg.

For the compound `Cc1sc2ccccc2c2nn(-c3ccc(C(F)(F)F)cc3)c(=O)c1-2` [Example 38, 4-methyl-2-(4-trifluoromethyl-phenyl)[1]benzothiopyrano[4,3-c]-pyrazol-3(2H)-one], the minimal effective dose stood at 0.3 mg/kg.

For `Cc1sc2ccccc2c2nn(-c3ccc(Br)cc3)c(=O)c1-2` [Example 39, 2-(4-bromophenyl)-4-methyl[1]benzo-thiopyrano[4,3-c]pyrazol-3(2H)-one], the minimal effective dose is 50 mg/kg.

In the case of `COc1ccc(-n2nc3c4ccccc4sc(C)c-3c2=O)cc1` [Example 40, 2-(4-methoxyphenyl)-4-methyl[1]benzo-thiopyrano[4,3-c]pyrazol-3(2H)-one], the minimal effective dose was 50 mg/kg.

As for `Cc1ccc2sc(C)c3c(=O)n(-c4ccc(Cl)cc4)nc-3c2c1` [Example 41, 2-(4-chlorophenyl)-4,8-dimethyl[1]-benzothiopyrano[4,3-c]pyrazol-3(2H)-one], the minimal effective dose was 3 mg/kg.

Regarding `Cc1sc2ccccc2c2nn(-c3cccc(Cl)c3)c(=O)c1-2` [Example 42, 2-(3-chlorophenyl)-4-methyl[1]benzo-thiopyrano[4,3-c]pyrazol-3(2H)-one], the minimal effective dose was 50 mg/kg.

For `Cc1sc2ccccc2c2nn(-c3ccc(Cl)c(Cl)c3)c(=O)c1-2` [Example 43, 2-(3,4-dichlorophenyl)-4-methyl[1]-benzothiopyrano[4,3-c]pyrazol-3(2H)-one], the minimal effective dose turned out to be 3 mg/kg.
